Series [1] deals with Plasmodium berghei. As to the kind of experiment: Antiplasmodial activity against hepatic stage luciferase-expressing Plasmodium berghei sporozoites infected in human Huh-7 cells assessed as reduction in parasite burden preincubated for 1 hrs followed by infection and measured after 46 hrs by […]. The class given is functional, organism-based. For orientation: Alamar Blue is a resazurin reagent that responds to reducing activity.

The nature of series [2]: Cytotoxicity against human Huh-7 cells assessed as reduction in cell viability incubated for 46 hrs by AlamarBlue dye based fluorescence analysis. It is filed as toxicity.
Series [3] can be described thus: Selectivity index, ratio of CC50 for cytotoxicity against human Huh-7 cells to IC50 for antiplasmodial activity against hepatic stage luciferase-expressing Plasmodium berghei sporozoites infected in human Huh-7 cells. It is filed as toxicity, cell-based. The note with it: read-out: Ratio CC50/IC50.
Series [4] has as its system Plasmodium falciparum. The series is described as follows: Antiplasmodial activity against Plasmodium falciparum. The class given is functional, organism-based.
In series [5] the test system is Plasmodium berghei. As to the kind of experiment: Potency index, ratio of monensin IC50 to test compound IC50 for antiplasmodial activity against hepatic stage luciferase-expressing Plasmodium berghei sporozoites infected in human Huh-7 cells assessed as reduction in parasite burden preincubated for 1 hrs followed by infection and measured after 46 hrs by […]. The class given is functional. The note with it: time 47 hrs.

SMILES strings stand for the structures.

In the case of `CC[C@@]1([C@@H]2O[C@@H]([C@H]3O[C@@](O)(CO)[C@H](C)C[C@@H]3C)C[C@@H]2C)CC[C@H]([C@]2(C)CC[C@]3(C[C@H](O)[C@@H](C)[C@@H]([C@@H](C)[C@@H](OC)[C@H](C)C(=O)OCCCC[P+](c4ccccc4)(c4ccccc4)c4ccccc4)O3)O2)O1`, in series [1], the IC50 stood at 0.623 µM. In series [2], the cytotoxic concentration (CC50) at 46 h came out at 5.8 µM. In addition, the selectivity ratio in series [3] amounted to 9.3.
Turning to `CC[C@@]1([C@@H]2O[C@@H]([C@H]3O[C@@](O)(COS(=O)(=O)c4ccc(C)cc4)[C@H](C)C[C@@H]3C)C[C@@H]2C)CC[C@H]([C@]2(C)CC[C@]3(C[C@H](O)[C@@H](C)[C@@H]([C@@H](C)[C@@H](OC)[C@H](C)C(=O)O)O3)O2)O1`, in series [4], the IC50 amounted to 0.00152 µM.
For the compound `CC[C@@]1([C@@H]2O[C@@H]([C@H]3O[C@@](O)(COC(=O)Nc4ccccc4)[C@H](C)C[C@@H]3C)C[C@@H]2C)CC[C@H]([C@]2(C)CC[C@]3(C[C@H](O)[C@@H](C)[C@@H]([C@@H](C)[C@@H](OC)[C@H](C)C(=O)O)O3)O2)O1`, the IC50 in series [1] was 0.0007 µM. Besides, in series [2], the CC50 at 46 h came out at 3.1 µM. In series [3], the selectivity ratio was 4430. Besides, the “Ratio IC50” value in series [5] is around 8.
For the compound `CC[C@@]1([C@@H]2O[C@@H]([C@H]3O[C@@](O)(CNC(=O)c4ccccc4)[C@H](C)C[C@@H]3C)C[C@@H]2C)CC[C@H]([C@]2(C)CC[C@]3(C[C@H](O)[C@@H](C)[C@@H]([C@@H](C)[C@@H](OC)[C@H](C)C(=O)O)O3)O2)O1`, in series [1], the IC50 turned out to be 0.0064 µM. For the same compound, the CC50 at 46 h in series [2] was determined as 8.4 µM. The selectivity ratio in series [3] turned out to be 1310.
With `CC[C@@]1([C@@H]2O[C@@H]([C@H]3O[C@@](O)(CNC(=O)Nc4ccccc4)[C@H](C)C[C@@H]3C)C[C@@H]2C)CC[C@H]([C@]2(C)CC[C@]3(C[C@H](O)[C@@H](C)[C@@H]([C@@H](C)[C@@H](OC)[C@H](C)C(=O)O)O3)O2)O1`, the IC50 in series [1] is 0.0029 µM. In series [2], the CC50 at 46 h is 4.2 µM. In addition, the selectivity ratio in series [3] amounted to 1450.
For `CC[C@@]1([C@@H]2O[C@@H]([C@H]3O[C@@](O)(CNC(=O)CCC[P+](c4ccccc4)(c4ccccc4)c4ccccc4)[C@H](C)C[C@@H]3C)C[C@@H]2C)CC[C@H]([C@]2(C)CC[C@]3(C[C@H](O)[C@@H](C)[C@@H]([C@@H](C)[C@@H](OC)[C@H](C)C(=O)O)O3)O2)O1` the same measures were 1.49 µM, 75.3 µM and 50.6.
As to `CC[C@@]1([C@@H]2O[C@@H]([C@H]3O[C@@](O)(CO)[C@H](C)C[C@@H]3C)C[C@@H]2C)CC[C@H]([C@]2(C)CC[C@]3(C[C@H](O)[C@@H](C)[C@@H]([C@@H](C)[C@@H](OC)[C@H](C)C(=O)OCc4ccccc4)O3)O2)O1`, the IC50 in series [1] worked out at 0.0816 µM. For the same compound, in series [2], the CC50 at 46 h came to 31.3 µM. The selectivity ratio in series [3] amounted to 384.
In turn, `CC[C@@]1([C@@H]2O[C@@H]([C@H]3O[C@@]4(COC(=O)O4)[C@H](C)C[C@@H]3C)C[C@@H]2C)CC[C@H]([C@]2(C)CC[C@]3(C[C@H](O)[C@@H](C)[C@@H]([C@@H](C)[C@@H](OC)[C@H](C)C(=O)O)O3)O2)O1` returned an IC50 in series [4] of 0.00108 µM.
Regarding `CC[C@@]1([C@@H]2O[C@@H]([C@H]3O[C@@](O)(CO)[C@H](C)C[C@@H]3C)C[C@@H]2C)CC[C@H]([C@]2(C)CC[C@]3(C[C@H](O)[C@@H](C)[C@@H]([C@@H](C)[C@@H](OC)[C@H](C)C(=O)O)O3)O2)O1` [MONENSIN], the IC50 in series [1] came out at 0.0055 µM; in series [4], 0.00246 µM. The CC50 at 46 h in series [2] was determined as 17.5 µM. Also, the selectivity ratio in series [3] amounted to 3180.
Take `COc1cc(NC(C)CCCN)c2ncccc2c1` (configuration not stated) [PRIMAQUINE]: in series [2], the CC50 at 46 h stood at 139 µM. For the same compound, in series [3], the selectivity ratio worked out at 16.4.

Usually IC50 stands for the concentration at which inhibition is half-maximal. As a reminder, the CC50 is the concentration at which the toxic effect on the cells reaches its halfway point.

For the origin of these results see ChEMBL document CHEMBL6182887, “Chemical modification of monensin as a source of potent antiplasmodial agents” (Bioorg Med Chem, 2025).
